Source: the supplement of paper PMC5662764
± gives the standard deviation of the averaged measurements.

Experiments:
Assay in all cases: normalised growth rate inhibition (GR value) relative to DMSO control (GR (1 = untreated growth, 0 = cytostasis, <0 = cytotoxic)); higher = less growth inhibition
Settings in all cases: 72 h
MDAMB231 = tested on: MDAMB231
Protocol: (§1)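 Breast cancer cell lines (BT-20, Hs 578T, MCF 10A, MCF7, MDA-MB-231, SK-BR-3) were plated in 384-well plates and treated 24 h later with drugs at six concentrations (0.04-10 µM). Viable cells were counted by Hoechst/dead-cell-stain imaging at 0 and 72 h. Counts were normalised to DMSO controls on the same plate to give the relative cell count and the growth-rate inhibition (GR) value; technical plate triplicates were averaged for each biological replicate.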

MCF7 = tested on: MCF7
Protocol: as §1

SKBR3 = tested on: SKBR3
Protocol: as §1

BT20 = tested on: BT20
Protocol: as §1

HS578T = tested on: HS578T
Protocol: as §1

MCF10A = tested on: MCF10A
Protocol: as §1

Row | SMILES | normalised growth rate inhibition (MDAMB231; 0.04 µM) | normalised growth rate inhibition (MDAMB231; 0.12 µM) | normalised growth rate inhibition (MDAMB231; 0.37 µM) | normalised growth rate inhibition (MDAMB231; 1.11 µM) | normalised growth rate inhibition (MDAMB231; 3.33 µM) | normalised growth rate inhibition (MDAMB231; 10 µM) | normalised growth rate inhibition (MCF7; 0.04 µM) | normalised growth rate inhibition (MCF7; 0.12 µM) | normalised growth rate inhibition (MCF7; 0.37 µM) | normalised growth rate inhibition (MCF7; 1.11 µM) | normalised growth rate inhibition (MCF7; 3.33 µM) | normalised growth rate inhibition (MCF7; 10 µM) | normalised growth rate inhibition (SKBR3; 0.04 µM) | normalised growth rate inhibition (SKBR3; 0.12 µM) | normalised growth rate inhibition (SKBR3; 0.37 µM) | normalised growth rate inhibition (SKBR3; 1.11 µM) | normalised growth rate inhibition (SKBR3; 3.33 µM) | normalised growth rate inhibition (SKBR3; 10 µM) | normalised growth rate inhibition (BT20; 0.04 µM) | normalised growth rate inhibition (BT20; 0.12 µM) | normalised growth rate inhibition (BT20; 0.37 µM) | normalised growth rate inhibition (BT20; 1.11 µM) | normalised growth rate inhibition (BT20; 3.33 µM) | normalised growth rate inhibition (BT20; 10 µM) | normalised growth rate inhibition (HS578T; 0.04 µM) | normalised growth rate inhibition (HS578T; 0.12 µM) | normalised growth rate inhibition (HS578T; 0.37 µM) | normalised growth rate inhibition (HS578T; 1.11 µM) | normalised growth rate inhibition (HS578T; 3.33 µM) | normalised growth rate inhibition (HS578T; 10 µM) | normalised growth rate inhibition (MCF10A; 0.04 µM) | normalised growth rate inhibition (MCF10A; 0.12 µM) | normalised growth rate inhibition (MCF10A; 0.37 µM) | normalised growth rate inhibition (MCF10A; 1.11 µM) | normalised growth rate inhibition (MCF10A; 3.33 µM) | normalised growth rate inhibition (MCF10A; 10 µM)
1 | Cc1cc2c(F)c(Oc3ncnn4cc(OC[C@@H](C)O)c(C)c34)ccc2[nH]1 [brivanib] | 0.902 ± 0.11 | 0.892 ± 0.081 | 0.91 ± 0.062 | 0.923 ± 0.062 | 0.895 ± 0.1 | 0.667 ± 0.094 | 0.902 ± 0.093 | 0.864 ± 0.064 | 0.898 ± 0.079 | 0.908 ± 0.062 | 0.949 ± 0.029 | 0.86 ± 0.035 | 0.811 ± 0.14 | 0.798 ± 0.17 | 0.807 ± 0.15 | 0.861 ± 0.11 | 0.85 ± 0.11 | 0.822 ± 0.1 | 0.949 ± 0.039 | 0.935 ± 0.016 | 0.956 ± 0.012 | 0.928 ± 0.024 | 0.925 ± 0.047 | 0.798 ± 0.03 | 0.963 ± 0.016 | 0.952 ± 0.02 | 0.963 ± 0.011 | 0.9364 ± 0.0061 | 0.9281 ± 0.0053 | 0.797 ± 0.055 | 0.992 ± 0.017 | 0.977 ± 0.023 | 0.969 ± 0.016 | 0.883 ± 0.043 | 0.74 ± 0.071 | 0.316 ± 0.043
2 | Nc1cc(C(F)(F)F)c(-c2cc(N3CCOCC3)nc(N3CCOCC3)n2)cn1 [buparlisib] | 1.05 ± 0.063 | 0.978 ± 0.027 | 0.844 ± 0.04 | 0.487 ± 0.062 | 0.0994 ± 0.052 | -0.255 ± 0.12 | 0.759 ± 0.25 | 0.475 ± 0.18 | 0.148 ± 0.069 | -0.113 ± 0.032 | -0.188 ± 0.0036 | -0.189 ± 0.021 | 0.917 ± 0.09 | 0.651 ± 0.1 | 0.145 ± 0.056 | -0.203 ± 0.16 | -0.281 ± 0.14 | -0.332 ± 0.13 | 1.01 ± 0.029 | 0.868 ± 0.1 | 0.501 ± 0.11 | 0.0131 ± 0.038 | -0.261 ± 0.11 | -0.346 ± 0.12 | 0.955 ± 0.025 | 0.845 ± 0.028 | 0.679 ± 0.039 | 0.142 ± 0.16 | -0.17 ± 0.099 | -0.231 ± 0.091 | 1 ± 0.012 | 0.956 ± 0.044 | 0.857 ± 0.11 | 0.487 ± 0.23 | 0.0221 ± 0.089 | -0.181 ± 0.12
3 | C=CC(=O)Nc1cc2c(Nc3ccc(F)c(Cl)c3)ncnc2cc1OCCCN1CCOCC1 [canertinib] | 1.04 ± 0.029 | 0.965 ± 0.015 | 0.909 ± 0.026 | 0.782 ± 0.034 | 0.572 ± 0.099 | -0.249 ± 0.077 | 0.9894 ± 0.0058 | 0.884 ± 0.035 | 0.801 ± 0.053 | 0.67 ± 0.062 | 0.505 ± 0.13 | -0.367 ± 0.092 | 0.148 ± 0.089 | 0.023 ± 0.12 | -0.0304 ± 0.15 | -0.0844 ± 0.15 | -0.124 ± 0.14 | -0.261 ± 0.12 | 0.896 ± 0.044 | 0.8804 ± 0.0073 | 0.831 ± 0.027 | 0.814 ± 0.045 | 0.71 ± 0.061 | -0.13 ± 0.097 | 1 ± 0.028 | 0.996 ± 0.028 | 0.969 ± 0.019 | 0.944 ± 0.011 | 0.851 ± 0.034 | -0.289 ± 0.13 | 0.702 ± 0.24 | 0.498 ± 0.26 | 0.313 ± 0.2 | 0.173 ± 0.1 | 0.105 ± 0.033 | -0.39 ± 0.22
